Values after ≈ are worked out from the molar mass of the structure shown. Structures can show the parent of a compound that is named as a salt.
Key:
[1] = Hansen solubility parameter, cited from earlier work; for Delta D: dispersion; for Delta H: hydrogen bonding; for Delta P: polar
[2] = cited from earlier work
[3] = Vigorous finger rubbing under running water of UV cured coated polyurethane catheters (coating stable / lubricious); format: physicochemical
Procedure: The coating was applied to polyurethane catheters by dipping the catheters in the polymer solution at room temperature and withdrawing them at a speed of 21 mm/s. The catheters were dried for 30 minutes at 70° C. and then UV cured for 150 seconds at 40-50° C. The UV cured catheters were immediately rubbed vigorously between the fingers under running water in order to evaluate whether the coating was stable and lubricious. They were then stored in water for at least 72 hours, and vigorous finger rubbing under running water was repeated. The catheters were then scored “stable” and “lubricious” only if the coating was still stable and lubricious at this time.

[4] = 8.7% plasticiser, 5% PVP K-90, 82% ethanol, 4.35% NMP, polyurethane catheters, finger rubbing under running water after at least 72 hours storage in water
[5] = 10% triethyl citrate, 79.0% solvent, 5% NMP, 6% PVP K-90, finger rubbing after at least 72 hours storage in water

Coating stable? [3, 4] | SMILES | Delta D [1] | Delta H [1] | Delta P [1] | Solubility in water (g/L) [2] | Solubility in water [2] [mg/mL] | Coating stable? [3, 5]
 | CC1=CC(=O)CC(C)(C)C1 [Isophorone] | 16.6 | 7.4 | 8.2 |  |  | 
 | CS(C)(=O)=O [Dimethyl sulfone] | 19 | 12.3 | 19.4 | Miscible |  | 
 | CC1COC(=O)O1 (stereo not shown) [Propylene carbonate] | 20 | 4.1 | 18 |  | 190 (≈ 1860 mM) | 
stable | CC(=O)OCC(CO)OC(C)=O (stereo not shown) [Glycerol diacetate] | 16.4 | 14.2 | 8.9 | Miscible |  | 
 | C1COCO1 [1,3-dioxolane] |  |  |  |  |  | stable
stable | CCOC(=O)CC(CC(=O)OCC)(OC(C)=O)C(=O)OCC [Acetyl triethyl citrate] | 16.6 | 8.6 | 3.5 |  |  | 
not stable | OCC(O)CO [glycerol] |  |  |  |  |  | 
 | CCO [Ethanol] |  |  |  |  |  | stable
stable | CCOC(=O)CC(O)(CC(=O)OCC)C(=O)OCC [Triethyl citrate] |  |  |  |  |  | 
 | c1ccc2ncccc2c1 [Quinoline] | 19.4 | 7.6 | 7 |  |  | 
 | CN(C)C=O [dimethyl formamide] |  |  |  |  |  | stable
 | COC(=O)c1ccccc1O [Methyl salicylate] | 16 | 12.3 | 8 |  |  | 
 | CC(=O)N1CCOCC1 [N-Acetyl morpholine] | 18.3 | 7.8 | 5.3 | Miscible |  | 
stable | CC(=O)OCC(COC(C)=O)OC(C)=O [Glycerol triacetate] | 16.5 | 9.1 | 4.5 |  | 71 | 
 | CCOP(=O)(OCC)OCC [Triethyl phosphate] | 16.7 | 9.2 | 11.4 |  |  | 
